The test deals with T1, WIZ protein (HiBit-WIZ fusion protein) (Homo sapiens, UniProt O95785+Q96SW2).
T1 construct: expressed in transfected cells
Description: Quantification of WIZ protein levels in HiBit tag fusion protein assay (WIZ HiBit assay in 293T cells). Type of test: cell-based. The note with it: for Dmax at 25 µM / remaining activity at 25 µM: HEK-293T, 293T cells; for Dmax at 25 µM: 100 − Amax, read-out: % degradation of WIZ (100 − Amax); for remaining activity at 25 µM: DMSO-normalized, curve-fitted percentage of WIZ-HiBit remaining at 25 uM, read-out: WIZ Amax; for DC50: WIZ HiBit assay in 293T cells, 10-point, 5-fold dose response, highest concentration 25 μM, about 18 hours, read-out: WIZ AC50. Here is the method: The HiBit system from Promega was used to develop high-throughput and quantitative assays to measure changes in WIZ protein levels in response to compounds. The HiBit tag was derived from a split Nanoluciferase and has the following protein sequence: […] (SEQ ID NO: 1). The complementary fragment of Nanoluciferase (known as LgBit, from Promega), was added to the HiBit tag to form an active Nanoluciferase enzyme whose activity can be precisely measured. In this way, the levels of a fusion protein with the HiBit tag can be quantified in cell lysates.
Lentiviral vectors, based on the Invitrogen™ pLenti6.2/V5 DEST backbone were constructed that places the HiBit tag upstream of WIZ and expressed the fusion protein from an HSVTK promotor.
To ensure moderate and consistent expression of the HiBit-WIZ fusion protein across all cells in the population, stable cell lines were constructed from cells harboring a single copy of the construct. Lentivirus packaged with the constructs were made using the ViraPower™ kit from Invitrogen™. 293T cells from ATCC (Catalog number: CRL-3216), were infected with the virus at low multiplicity of infection and selected by 5 μg/mL blasticidin in culture media for 2 weeks.
The levels of HiBit-WIZ tagged fusion proteins in compound-treated cell lines were measured as follows:
On day 1, cells were diluted to 1.0×10^6 cells/ml in normal growth medium. 20 μL of cell suspension were plated in each well of a solid white 384-well plate. Plates were incubated overnight in a 37° C. and 5% CO2 humidified tissue culture incubator.
On day 2, serial dilutions of compounds were made in 384-well plates. Compound plates were set up with DMSO in columns 1, 2, 23, 24, and 10-point compound dilution series in column 3-12 and column 13-22. 10 mM stock solution of compound were placed into column 3 or 13 and a 1:5 serial dilution was carried out until there was a 10-point dilution series per compound. 50 nL of diluted compounds were transferred into the plated cells by Echo® (Labcyte) acoustic transfer. The highest concentration of compound was 25 μM. Plates were incubated overnight (about 18 hours) in a 37° C. and 5% CO2 humidified tissue culture incubator.
On day 3, plates were removed from the incubator and allowed to equilibrate at room temperature for 60 minutes. HiBit substrate (Nano-Glo® HiBit Lytic Detection System, Promega Catalogue number: N3050) was added as described by the manufacturers protocols. Plates were incubated at room temperature for 30 minutes and luminescence was read using an EnVision® reader (PerkinElmer®). Data was analyzed and visualized using the Spotfire® software package.
WIZ Degradation Activity of Compounds (Table 1)
WIZ Amax reflects the DMSO-normalized, curve-fitted percentage of WIZ-HiBit remaining at 25 uM. It was calculated by normalizing […] controls to 100%, parametric curve fitting of the dose response data (10-point, 5-fold), followed by calculation of response at 25 uM using the fitted equation (nd=not determined).
For orientation: With HiBiT, luminescence reflects the tagged protein that the partner subunit can reach.

T1 sequence (O95785 whole entry, the tested form may be a part): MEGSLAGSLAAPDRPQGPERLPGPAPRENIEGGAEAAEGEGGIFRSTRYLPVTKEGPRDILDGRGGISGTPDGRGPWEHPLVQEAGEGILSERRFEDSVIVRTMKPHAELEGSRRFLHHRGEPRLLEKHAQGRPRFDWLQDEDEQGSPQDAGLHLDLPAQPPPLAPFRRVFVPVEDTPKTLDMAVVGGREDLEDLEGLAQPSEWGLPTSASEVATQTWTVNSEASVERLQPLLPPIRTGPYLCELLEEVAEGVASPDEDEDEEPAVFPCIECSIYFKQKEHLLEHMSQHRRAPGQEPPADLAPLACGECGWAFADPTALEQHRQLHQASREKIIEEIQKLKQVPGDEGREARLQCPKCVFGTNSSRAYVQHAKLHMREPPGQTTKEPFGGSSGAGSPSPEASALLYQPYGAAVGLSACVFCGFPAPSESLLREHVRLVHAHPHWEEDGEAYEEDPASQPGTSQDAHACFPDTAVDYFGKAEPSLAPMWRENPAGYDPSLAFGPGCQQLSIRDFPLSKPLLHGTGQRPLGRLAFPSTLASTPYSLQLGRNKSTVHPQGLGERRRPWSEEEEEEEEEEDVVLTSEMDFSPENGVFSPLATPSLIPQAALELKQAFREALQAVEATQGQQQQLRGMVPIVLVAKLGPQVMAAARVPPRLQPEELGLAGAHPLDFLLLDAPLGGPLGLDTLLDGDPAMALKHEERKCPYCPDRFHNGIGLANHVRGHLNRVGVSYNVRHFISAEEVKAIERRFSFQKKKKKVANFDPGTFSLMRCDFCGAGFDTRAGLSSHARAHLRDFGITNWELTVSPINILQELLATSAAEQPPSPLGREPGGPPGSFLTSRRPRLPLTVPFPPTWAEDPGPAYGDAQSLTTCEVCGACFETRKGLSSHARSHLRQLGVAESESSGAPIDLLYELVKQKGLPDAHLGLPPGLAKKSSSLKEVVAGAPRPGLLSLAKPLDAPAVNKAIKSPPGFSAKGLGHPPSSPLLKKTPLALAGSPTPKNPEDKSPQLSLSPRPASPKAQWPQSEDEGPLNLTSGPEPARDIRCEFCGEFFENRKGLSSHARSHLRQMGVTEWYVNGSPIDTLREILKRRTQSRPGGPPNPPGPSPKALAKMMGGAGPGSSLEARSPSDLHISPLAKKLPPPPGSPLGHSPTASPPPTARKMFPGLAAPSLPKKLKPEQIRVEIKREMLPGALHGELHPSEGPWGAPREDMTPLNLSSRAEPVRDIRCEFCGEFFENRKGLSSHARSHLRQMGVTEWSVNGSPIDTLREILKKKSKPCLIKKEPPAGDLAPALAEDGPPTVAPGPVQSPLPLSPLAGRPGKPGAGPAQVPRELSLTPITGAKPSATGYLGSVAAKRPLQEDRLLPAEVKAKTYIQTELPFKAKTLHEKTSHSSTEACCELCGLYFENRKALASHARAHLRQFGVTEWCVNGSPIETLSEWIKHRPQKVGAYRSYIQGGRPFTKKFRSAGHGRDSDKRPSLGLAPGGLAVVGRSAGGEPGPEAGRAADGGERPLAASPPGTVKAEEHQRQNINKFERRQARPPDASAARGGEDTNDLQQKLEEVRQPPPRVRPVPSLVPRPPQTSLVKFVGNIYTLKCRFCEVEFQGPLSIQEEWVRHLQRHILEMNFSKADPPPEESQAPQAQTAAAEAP
T1 sequence (Q96SW2 whole entry, the tested form may be a part): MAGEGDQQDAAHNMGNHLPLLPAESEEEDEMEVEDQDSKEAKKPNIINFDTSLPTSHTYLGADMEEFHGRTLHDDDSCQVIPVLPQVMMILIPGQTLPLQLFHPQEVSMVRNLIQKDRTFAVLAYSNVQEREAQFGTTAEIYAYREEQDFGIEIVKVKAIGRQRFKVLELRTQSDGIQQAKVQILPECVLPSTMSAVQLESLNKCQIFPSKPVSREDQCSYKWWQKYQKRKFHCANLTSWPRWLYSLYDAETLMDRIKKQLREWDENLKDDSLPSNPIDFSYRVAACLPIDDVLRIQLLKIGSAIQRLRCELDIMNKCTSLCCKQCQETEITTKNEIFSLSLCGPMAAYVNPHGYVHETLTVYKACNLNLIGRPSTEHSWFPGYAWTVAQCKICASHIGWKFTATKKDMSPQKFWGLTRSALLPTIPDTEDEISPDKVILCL
T1 sequence (Q16531 whole entry partner, the tested form may be a part): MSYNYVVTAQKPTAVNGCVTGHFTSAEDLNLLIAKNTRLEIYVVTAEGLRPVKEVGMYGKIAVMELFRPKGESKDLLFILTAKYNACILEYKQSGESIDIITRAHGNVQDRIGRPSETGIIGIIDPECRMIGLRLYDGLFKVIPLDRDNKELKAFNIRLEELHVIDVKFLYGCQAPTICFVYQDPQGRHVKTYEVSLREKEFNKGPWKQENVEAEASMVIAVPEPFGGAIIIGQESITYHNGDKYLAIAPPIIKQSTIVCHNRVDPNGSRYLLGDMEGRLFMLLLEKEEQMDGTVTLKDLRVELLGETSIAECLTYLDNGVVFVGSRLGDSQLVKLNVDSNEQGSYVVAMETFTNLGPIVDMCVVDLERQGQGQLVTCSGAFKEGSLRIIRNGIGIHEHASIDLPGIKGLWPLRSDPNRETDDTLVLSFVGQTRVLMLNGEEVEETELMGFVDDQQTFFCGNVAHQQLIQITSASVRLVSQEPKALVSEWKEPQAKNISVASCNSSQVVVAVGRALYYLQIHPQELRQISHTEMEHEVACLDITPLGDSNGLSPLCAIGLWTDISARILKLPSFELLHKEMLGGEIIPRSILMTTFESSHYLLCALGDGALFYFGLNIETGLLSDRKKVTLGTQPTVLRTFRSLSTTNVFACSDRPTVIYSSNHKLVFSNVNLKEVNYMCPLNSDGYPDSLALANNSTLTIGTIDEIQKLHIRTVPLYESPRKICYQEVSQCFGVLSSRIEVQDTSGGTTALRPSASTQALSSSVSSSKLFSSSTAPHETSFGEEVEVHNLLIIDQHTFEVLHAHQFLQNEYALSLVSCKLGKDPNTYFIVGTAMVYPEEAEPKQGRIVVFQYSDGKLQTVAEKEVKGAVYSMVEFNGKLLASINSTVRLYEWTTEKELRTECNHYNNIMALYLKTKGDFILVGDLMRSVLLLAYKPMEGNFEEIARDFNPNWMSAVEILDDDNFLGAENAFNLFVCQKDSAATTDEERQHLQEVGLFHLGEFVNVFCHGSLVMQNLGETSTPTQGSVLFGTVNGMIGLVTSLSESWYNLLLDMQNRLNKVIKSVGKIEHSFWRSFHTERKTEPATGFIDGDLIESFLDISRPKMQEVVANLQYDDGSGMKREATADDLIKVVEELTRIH

With `O=C1CCN(c2cnn3ccc(CC4CCN(CC(F)(F)F)CC4)cc23)C(=O)N1` [Example 30, 1-(5-((1-(2,2,2-trifluoroethyl)piperidin-4-yl)methyl)pyrazolo[1,5-a]pyridin-3-yl)dihydropyrimidine-2,4(1H,3H)-dione], the Dmax at 25 µM was found to be 80%, the remaining activity at 25 µM came out at 20% and the DC50 worked out at 201 nM.
Take `O=C1CCN(c2cnn3ccc(CC4CCN(C5CCC5)CC4)cc23)C(=O)N1` [Example 282, 1-(5-((1-cyclobutylpiperidin-4-yl)methyl)pyrazolo[1,5-a]pyridin-3-yl)dihydropyrimidine-2,4(1H,3H)-dione]: the Dmax at 25 µM is 81%, the remaining activity at 25 µM amounted to 19% and the DC50 amounted to 1 nM.
The like results for `CC(C)CN1[C@@H](C)CN(Cc2ccn3ncc(N4CCC(=O)NC4=O)c3c2)C[C@@H]1C` [Example 259, 1-(5-(((3S,5S)-4-isobutyl-3,5-dimethylpiperazin-1-yl)methyl)pyrazolo[1,5-a]pyridin-3-yl)dihydropyrimidine-2,4(1H,3H)-dione] were, in that order, 61%, 39% and 258 nM.
The like results for `CC(C)CN1CC[C@@H](Cc2ccn3ncc(-n4cc(F)c(=O)[nH]c4=O)c3c2)C[C@@H]1C` [Example 349, 5-fluoro-1-(5-(((2S,4R)-1-isobutyl-2-methylpiperidin-4-yl)methyl)pyrazolo[1,5-a]pyridin-3-yl)pyrimidine-2,4(1H,3H)-dione] were, in that order, 86%, 14% and 118 nM.
The like results for `COc1cn(-c2cnn3ccc(C[C@@H]4CCN(CC5CCC(F)(F)CC5)[C@@H](C)C4)cc23)c(=O)[nH]c1=O` [Example 353, 1-(5-(((2S,4R)-1-((4,4-difluorocyclohexyl)methyl)-2-methylpiperidin-4-yl)methyl)pyrazolo[1,5-a]pyridin-3-yl)-5-methoxypyrimidine-2,4(1H,3H)-dione] were, in that order, 70%, 30% and 9100 nM.
Consider `O=C1CCN(c2cnn3ccc(CN4CCN(Cc5cccnc5)CC4)cc23)C(=O)N1` [Example 191, 1-(5-((4-(pyridin-3-ylmethyl)piperazin-1-yl)methyl)pyrazolo[1,5-a]pyridin-3-yl)dihydropyrimidine-2,4(1H,3H)-dione], for which the Dmax at 25 µM amounted to 50%, the remaining activity at 25 µM was 50% and the DC50 was 683 nM.
Turning to `O=C1CCN(c2cnn3ccc(CN4CCN(CC5CCC(F)(F)CC5)CC4)cc23)C(=O)N1` [Example 157], the Dmax at 25 µM was 83%, the remaining activity at 25 µM was found to be 17% and the DC50 was 22 nM.
In the case of `CC(C)CN1[C@H](C)CN(Cc2ccn3ncc(N4CCC(=O)NC4=O)c3c2)C[C@@H]1C` [Example 257, 1-(5-(((3S,5R)-4-isobutyl-3,5-dimethylpiperazin-1-yl)methyl)pyrazolo[1,5-a]pyridin-3-yl)dihydropyrimidine-2,4(1H,3H)-dione], the Dmax at 25 µM is 74%, the remaining activity at 25 µM came out at 26% and the DC50 worked out at 101 nM.
The like results for `O=C1CCN(c2cnn3ccc(CC4CCN(Cc5ccncc5)CC4)cc23)C(=O)N1` [Example 28, 1-(5-((1-(pyridin-4-ylmethyl)piperidin-4-yl)methyl)pyrazolo[1,5-a]pyridin-3-yl)dihydropyrimidine-2,4(1H,3H)-dione] were, in that order, 75%, 25% and 105 nM.
The like results for `O=C1CCN(c2cnn3ccc(CC4CCN(C(=O)Oc5ccccc5)CC4)cc23)C(=O)N1` [Example 94] were, in that order, 62%, 38% and 3990 nM.
On the same counts, the results for `Cn1nccc1CN1CCC(Cc2ccn3ncc(N4CCC(=O)NC4=O)c3c2)CC1` [Example 114] are 68%, 32% and 90 nM.
In the case of `O=C1CCN(c2cnn3ccc(CC4CCN(Cc5ccc(F)c(F)c5)CC4)cc23)C(=O)N1` [Example 45, 1-(5-((1-(3,4-difluorobenzyl)piperidin-4-yl)methyl)pyrazolo[1,5-a]pyridin-3-yl)dihydropyrimidine-2,4(1H,3H)-dione], the Dmax at 25 µM was 70%, the remaining activity at 25 µM turned out to be 30% and the DC50 was found to be 23 nM.
Turning to `CO[C@H]1C[C@@H](CN2CCN(Cc3ccn4ncc(N5CCC(=O)NC5=O)c4c3)C[C@@H]2C)C1` [Example 317, 1-(5-(((S)-4-(((1s,3R)-3-methoxycyclobutyl)methyl)-3-methylpiperazin-1-yl)methyl)pyrazolo[1,5-a]pyridin-3-yl)dihydropyrimidine-2,4(1H,3H)-dione], the Dmax at 25 µM came to 80%, the remaining activity at 25 µM was determined as 20% and the DC50 amounted to 31 nM.
The like results for `CC(C)(C)CN1CCC(Cc2ccn3ncc(N4CCC(=O)NC4=O)c3c2)CC1` [Example 110] were, in that order, 79%, 21% and 44 nM.
On the same counts, the results for `C[C@@H]1CC(CN2CCN(Cc3ccn4ncc(N5CCC(=O)NC5=O)c4c3)C[C@@H]2C)C[C@H](C)O1` (stereo partly drawn) [Example 199, 1-(5-(((3S)-4-(((2R,6S)-2,6-dimethyltetrahydro-2H-pyran-4-yl)methyl)-3-methylpiperazin-1-yl)methyl)pyrazolo[1,5-a]pyridin-3-yl)dihydropyrimidine-2,4(1H,3H)-dione] are 86%, 14% and 9 nM.
The like results for `O=C1CCN(c2cnn3ccc(CC4CCN(Cc5ccccc5)CC4)cc23)C(=O)N1` [Example 29, 1-(5-((1-benzylpiperidin-4-yl)methyl)pyrazolo[1,5-a]pyridin-3-yl)dihydropyrimidine-2,4(1H,3H)-dione] were, in that order, 74%, 26% and 232 nM.
As to `C[C@@H]1C[C@H](Cc2ccn3ncc(N4CCC(=O)NC4=O)c3c2)CCN1CC1CCC(F)(F)CC1` [Example 78], the Dmax at 25 µM came out at 83%, the remaining activity at 25 µM was 17% and the DC50 is 10 nM.
On to `COc1ccccc1CN1CCC(Cc2ccn3ncc(N4CCC(=O)NC4=O)c3c2)CC1` [Example 122, 1-(5-((1-(2-methoxybenzyl)piperidin-4-yl)methyl)pyrazolo[1,5-a]pyridin-3-yl)dihydropyrimidine-2,4(1H,3H)-dione], for which the Dmax at 25 µM was 55%, the remaining activity at 25 µM stood at 45% and the DC50 turned out to be 2580 nM.
The like results for `CO[C@H]1CC[C@@H](CN2CCN(Cc3ccn4ncc(N5CCC(=O)NC5=O)c4c3)CC2)CC1` [Example 180, 1-(5-((4-(((1s,4s)-4-methoxycyclohexyl)methyl)piperazin-1-yl)methyl)pyrazolo[1,5-a]pyridin-3-yl)dihydropyrimidine-2,4(1H,3H)-dione] were, in that order, 81%, 19% and 78 nM.
On the same counts, the results for `CC(C)CN1CC[C@H](Cc2ccn3ncc(N4CCC(=O)NC4=O)c3c2)C[C@@H]1C(F)(F)F` (relative stereo) [Example 312, (cis)-1-(5-((1-isobutyl-2-(trifluoromethyl)piperidin-4-yl)methyl)pyrazolo[1,5-a]pyridin-3-yl)dihydropyrimidine-2,4(1H,3H)-dione] are 44%, 56% and 370 nM.
Regarding `O=C1CCN(c2cnn3ccc(CC4CCN(C(=O)C5(C(F)(F)F)CC5)CC4)cc23)C(=O)N1` [Example 100], the Dmax at 25 µM came out at 42%, the remaining activity at 25 µM amounted to 58% and the DC50 came out at 755 nM.
